Measured values published in patent US20260022143A1, “Cyclic Peptide Inhibitors of IL-23” (JANSSEN PHARMACEUTICA NV, priority 2022, published 2026).
Starred links: 1 amine or outer side, 2 acyl side, 3 side chain; linkers in the order of their positions; H or OH if unused. Positions of bridges follow the written chain, without caps; N, C: chain ends. Non-standard residues stand in square brackets, D forms with d. Residues, ends and D or L forms follow the SMILES beside them. Groups on a side chain read outwards from the residue. *: point of attachment. X13 = C[N+]1(Cc2cn(-c3ccc(C[C@H](N[*:1])C(=O)[*:2])cc3)nn2)CCOCC1; Me3N+(CH2)2O(CH2)2O(CH2)2CO = C[N+](C)(C)CCOCCOCCC(=O)*; CH2CH2OCH2CH2OCH2CH2NMe3+ = C[N+](C)(C)CCOCCOCC*; Trp(7-Me) = Cc1cccc2c(C[C@H](N)C(=O)O)c[nH]c12; d(hLys(Me3)) = C[N+](C)(C)CCCCC[C@@H](N)C(=O)O; Hexanoyl(6-NMe3+) = C[N+](C)(C)CCCCCC(=O)*; γGlu = O=C(O)[C@H](CCC(=O)[*:2])N[*:1]; 2Nal = N[C@@H](Cc1ccc2ccccc2c1)C(=O)O; 3Pal = N[C@@H](Cc1cccnc1)C(=O)O; Myristoyl = CCCCCCCCCCCCCC(=O)*; Lys(Me) = CNCCCC[C@H](N)C(=O)O; NMeK = CN[C@@H](CCCCN)C(=O)O; Pen = CC(C)(S)[C@H](N)C(=O)O; Lauroyl = CCCCCCCCCCCC(=O)*; X18 = C[N+]1(C)CCOC(C*)C1; Thp = NC1(C(=O)O)CCOCC1; X3 = C[N+](C)(C)CCCCC*; AEEA = NCCOCCOCC(=O)O; Me2NCH2CH2 = CN(C)CC*; Sar = CNCC(=O)O

Experiments:
IL-23R = target: T1, IL-23R (Homo sapiens, UniProt Q5VWK5); assay: IL23R Reporter Assay; type: cell-based; conditions: HEK293 cells containing IL-23R, IL-12RP1 and STAT-inducible firefly luciferase reporter; 10 ng/mL IL-23 (EC90); 5 h at 37° C.; read-out: IL23R Reporter Assay
T1 construct: host or cells: HEK293
T1 sequence (Q5VWK5 24-629): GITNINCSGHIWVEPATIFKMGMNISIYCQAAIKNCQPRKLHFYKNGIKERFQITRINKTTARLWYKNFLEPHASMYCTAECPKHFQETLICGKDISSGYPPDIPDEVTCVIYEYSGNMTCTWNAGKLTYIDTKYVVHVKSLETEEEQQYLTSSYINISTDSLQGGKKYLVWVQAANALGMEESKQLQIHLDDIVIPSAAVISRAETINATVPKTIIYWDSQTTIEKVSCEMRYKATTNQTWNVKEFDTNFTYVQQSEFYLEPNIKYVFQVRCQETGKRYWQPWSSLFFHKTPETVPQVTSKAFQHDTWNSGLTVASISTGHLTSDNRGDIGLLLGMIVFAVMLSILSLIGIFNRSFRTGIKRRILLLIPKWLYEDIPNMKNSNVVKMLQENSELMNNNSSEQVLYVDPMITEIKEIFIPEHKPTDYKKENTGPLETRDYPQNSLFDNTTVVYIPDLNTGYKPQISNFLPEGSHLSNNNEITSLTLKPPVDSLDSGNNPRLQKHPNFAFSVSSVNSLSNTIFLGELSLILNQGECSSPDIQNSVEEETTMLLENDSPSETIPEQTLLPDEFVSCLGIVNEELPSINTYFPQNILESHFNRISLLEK

[1] = Exposed Polar Surface Area (EPSA); type: physicochemical; conditions: SFC on Chirex 3014 column; sample 1 mM DMSO stock; read-out: EPSA
Summary of the method: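 Retention-based polarity: supercritical CO2 with 20 mM ammonium formate in MeOH (5–60%, 20%/min), Chirex 3014 column, 35 °C. Calibrated against 8 standards to give EPSA (Å^2); each sample measured twice.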

SMILES	IC50 (IL-23R) [nM]	EPSA [1] [A^2]
CC(=O)N(C)CCCC[C@@H]1NC(=O)[C@H](Cc2c[nH]c3c(C)cccc23)NC(=O)[C@H]([C@@H](C)O)NC(=O)[C@H](CC(=O)N(C)C)NC(=O)[C@@H](NC(=O)CCOCCOCC[N+](C)(C)C)C(C)(C)SSC(C)(C)[C@@H](C(=O)N[C@@H](Cc2ccc(OCCCCC[N+](C)(C)C)cc2)C(=O)N[C@@H](Cc2ccccc2)C(=O)NC2(C(=O)N[C@@H](CCCCN(C)C(C)=O)C(=O)N[C@@H](CC(N)=O)C(=O)N[C@@H](Cc3cccnc3)C(=O)N(C)CC(=O)N(C)C)CCOCC2)NC1=O [compound 498, cPEG3aCO-Pen(3)-N(N(Me)2)-T-7MeW-K(NMeAc)-Pen(3)-TMApF-F-THP-K(NMeAc)-N-3Pya-Sar-CON(Me)2] ({Me3N+(CH2)2O(CH2)2O(CH2)2CO}-[Pen]D(NMe2)T[Trp(7-Me)][Lys(Me)](Ac)[Pen]Y(X3)F[Thp][Lys(Me)](Ac)N[3Pal][Sar]-NMe2; disulfide 1-6)	27	162
CC(=O)NCCCC[C@@H]1NC(=O)[C@H](Cc2c[nH]c3c(C)cccc23)NC(=O)[C@H]([C@@H](C)O)NC(=O)[C@H](CC(N)=O)NC(=O)[C@@H](NC(=O)CCCc2ccc(I)cc2)C(C)(C)SSC(C)(C)[C@@H](C(=O)N[C@@H](Cc2ccc(OCCCCC[N+](C)(C)C)cc2)C(=O)N[C@@H](Cc2ccc3ccccc3c2)C(=O)NC2(C(=O)N[C@@H](CCCCNC(C)=O)C(=O)N[C@@H](CC(N)=O)C(=O)N[C@@H](Cc3cccnc3)C(=O)N(C)CC(N)=O)CCOCC2)NC1=O [compound 547, IPBCO-Pen(3)-N-T-7MeW-K(Ac)-Pen(3)-TMAPF-2Nal-THP-K(Ac)-N-3Pya-Sar-CONH2]	4.6	168
CC(=O)NCCCC[C@@H]1NC(=O)[C@H](Cc2c[nH]c3c(-c4cccc(NC(C)=O)c4)cccc23)NC(=O)[C@H]([C@@H](C)O)NC(=O)[C@H](CC(N)=O)NC(=O)[C@@H](NC(C)=O)C(C)(C)SSC(C)(C)[C@@H](C(=O)N[C@@H](Cc2ccc(OCCNC(=N)N)cc2)C(=O)N[C@@H](Cc2ccc3ccccc3c2)C(=O)NC2(C(=O)N[C@@H](CCCCN(C)C(C)=O)C(=O)N[C@@H](CC(N)=O)C(=O)N[C@@H](Cc3cccnc3)C(=O)N(C)CC(N)=O)CCOCC2)NC1=O [compound 515, MeCO-Pen(3)-N-T-7(3NAcPh)W-K(Ac)-Pen(3)-AEF(G)-2Nal-THP-K(NMeAc)-N-3Pya-Sar-CONH2]	3.8	197
CCCCCCCCCCCC(=O)N[C@@H](CCC(=O)NCCOCCOCC(=O)NCCOCCOCC(=O)NCCCC[C@@H](C(N)=O)N(C)C(=O)[C@H](Cc1cccnc1)NC(=O)[C@H](CC(N)=O)NC(=O)[C@H](CCCCN(C)C(C)=O)NC(=O)C1(NC(=O)[C@H](Cc2ccc3ccccc3c2)NC(=O)[C@H](Cc2ccc(OCCCCC[N+](C)(C)C)cc2)NC(=O)[C@H]2NC(=O)[C@H](CCCCNC(C)=O)NC(=O)[C@H](Cc3c[nH]c4c(C)cccc34)NC(=O)[C@H]([C@@H](C)O)NC(=O)[C@H](CC(N)=O)NC(=O)[C@@H](NC(=O)CCOCCOCC[N+](C)(C)C)C(C)(C)SSC2(C)C)CCOCC1)C(=O)O [compound 371, cPEG3aCO-Pen(3)-N-T-7MeW-K(Ac)-Pen(3)-TMAPF-2Nal-THP-K(NMeac)-N-3Pya-NMeK(PEG2PEG2gEC12)-CONH2] ({Me3N+(CH2)2O(CH2)2O(CH2)2CO}-[Pen]NT[Trp(7-Me)]K(Ac)[Pen]Y(X3)[2Nal][Thp][Lys(Me)](Ac)N[3Pal][NMeK]([AEEA-AEEA-γGlu-Lauroyl])-NH2; disulfide 1-6)	5.5	182
CC(=O)NCCCC[C@@H]1NC(=O)[C@H](Cc2c[nH]c3c(C)cccc23)NC(=O)[C@H]([C@@H](C)O)NC(=O)[C@H](CC(N)=O)NC(=O)[C@@H](NC(=O)[C@@H](CCCNC(=N)N)NC(C)=O)C(C)(C)SSC(C)(C)[C@@H](C(=O)N[C@@H](Cc2ccc(OCCCCC[N+](C)(C)C)cc2)C(=O)N[C@@H](Cc2ccc3ccccc3c2)C(=O)NC2(C(=O)N[C@@H](CCCCNC(C)=O)C(=O)N[C@@H](CC(N)=O)C(=O)N[C@@H](Cc3cccnc3)C(=O)N(C)CC(N)=O)CCOCC2)NC1=O [compound 558, MeCO-r-Pen(3)-N-T-7MeW-K(Ac)-Pen(3)-TMAPF-2Nal-THP-K(Ac)-N-3Pya-Sar-CONH2] (Ac-[dR][Pen]NT[Trp(7-Me)]K(Ac)[Pen]Y(X3)[2Nal][Thp]K(Ac)N[3Pal][Sar]-NH2; disulfide 2-7)	4.1	174
CCCCCCCCCCCCCC(=O)N[C@@H](CCC(=O)NCCOCCOCC(=O)NCCOCCOCC(=O)NCCCC[C@H](NC(=O)[C@H](Cc1ccc2ccccc2c1)NC(=O)[C@H](Cc1ccc(OCCCCC[N+](C)(C)C)cc1)NC(=O)[C@H]1NC(=O)[C@H](CCCCN(C)C(C)=O)NC(=O)[C@H](Cc2c[nH]c3c(C)cccc23)NC(=O)[C@H]([C@@H](C)O)NC(=O)[C@H](CC(=O)N(C)C)NC(=O)[C@@H](NC(=O)[C@@H](CCCCC[N+](C)(C)C)NC(=O)COCCOCCNC(=O)COCCOCCNC(=O)CC[C@H](NC(=O)CCCCCCCCCCCCC)C(=O)O)C(C)(C)SSC1(C)C)C(=O)N[C@@H](CC(N)=O)C(=O)N[C@@H](Cc1cccnc1)C(=O)N(C)CC(=O)N(C)C)C(=O)O [compound 570, C14gEPEG2PEG2CO-hk(Me)3-Pen(3)-N(N(Me)2)-T-7MeW-K(NMeAc)-Pen(3)-TMAPF-2Nal-K(PEG2PEG2gEC14)-N-3Pya-Sar-CON(Me)2] ({Myristoyl-γGlu-AEEA-AEEA}-[d(hLys(Me3))][Pen]D(NMe2)T[Trp(7-Me)][Lys(Me)](Ac)[Pen]Y(X3)[2Nal]K([AEEA-AEEA-γGlu-Myristoyl])N[3Pal][Sar]-NMe2; disulfide 2-7)	29	154
Cc1cccc2c(C[C@@H]3NC(=O)[C@H]([C@@H](C)O)NC(=O)[C@H](CC(=O)N(C)C)NC(=O)[C@@H](NC(=O)CCCCC[N+](C)(C)C)C(C)(C)SSC(C)(C)[C@@H](C(=O)N[C@@H](Cc4ccc(OCCN(C)C)cc4)C(=O)N[C@@H](Cc4ccc5ccccc5c4)C(=O)NC4(C(=O)N[C@@H](CCC(=O)O)C(=O)N[C@@H](CC(N)=O)C(=O)N[C@@H](Cc5cccnc5)C(=O)N(C)CC(=O)N(C)C)CCOCC4)NC(=O)[C@H](CCC(=O)N(C)C)NC3=O)c[nH]c12 [compound 97, 5cpaCO-Pen(3)-N(N(Me)2)-T-7MeW-Q(N(Me)2)-Pen(3)-AEF(N(Me)2)-2Nal-THP-E-N-3Pya-Sar-CON(Me)2] ({Hexanoyl(6-NMe3+)}-[Pen]D(NMe2)T[Trp(7-Me)]E(NMe2)[Pen]Y(Me2NCH2CH2)[2Nal][Thp]EN[3Pal][Sar]-NMe2; disulfide 1-6)	5.8	152

These reach a lower IC50 (IL-23R). Values come first.

IC50 (IL-23R) [nM]	EPSA [1] [A^2]	SMILES
3.5	146	CC(=O)N(C)CCCC[C@@H]1NC(=O)[C@H](Cc2c[nH]c3c(C)cccc23)NC(=O)[C@H]([C@@H](C)O)NC(=O)[C@H](CC(=O)N(C)C)NC(=O)[C@@H](NC(=O)CCOCCOCC[N+](C)(C)C)C(C)(C)SSC(C)(C)[C@@H](C(=O)N[C@@H](Cc2ccc(OCC3C[N+](C)(C)CCO3)cc2)C(=O)N[C@@H](Cc2ccc3ccccc3c2)C(=O)NC2(C(=O)N[C@@H](CCCCN(C)C(C)=O)C(=O)N[C@@H](CC(N)=O)C(=O)N[C@@H](Cc3cccnc3)C(=O)N(C)CC(=O)N(C)C)CCOCC2)NC1=O (stereo partly drawn) [compound 202, cPEG3aCO-Pen(3)-N(N(Me)2)-T-7MeW-K(NMeAc)-Pen(3)-DMPMF-2Nal-THP-K(NMeAc)-N-3Pya-Sar-CON(Me)2] ({Me3N+(CH2)2O(CH2)2O(CH2)2CO}-[Pen]D(NMe2)T[Trp(7-Me)][Lys(Me)](Ac)[Pen]Y(X18)[2Nal][Thp][Lys(Me)](Ac)N[3Pal][Sar]-NMe2; disulfide 1-6)
1.8	153	CC(=O)N(C)CCCC[C@@H]1NC(=O)[C@H](Cc2c[nH]c3c(C)cccc23)NC(=O)[C@H]([C@@H](C)O)NC(=O)[C@H](CC(=O)N(C)C)NC(=O)[C@@H](NC(=O)CCOCCOCC[N+](C)(C)C)C(C)(C)SSC(C)(C)[C@@H](C(=O)N[C@@H](Cc2ccc(OCCOCCOCC[N+](C)(C)C)cc2)C(=O)N[C@@H](Cc2ccc3ccccc3c2)C(=O)NC2(C(=O)N[C@@H](C)C(=O)N[C@@H](CC(N)=O)C(=O)N[C@@H](Cc3cccnc3)C(=O)N(C)CC(=O)N(C)C)CCOCC2)NC1=O [compound 466, cPEG3aCO-Pen(3)-N(N(Me)2)-T-7MeW-K(NMeAc)-Pen(3)-APEG3F-2Nal-THP-A-N-3Pya-Sar-CON(Me)2] ({Me3N+(CH2)2O(CH2)2O(CH2)2CO}-[Pen]D(NMe2)T[Trp(7-Me)][Lys(Me)](Ac)[Pen]Y(CH2CH2OCH2CH2OCH2CH2NMe3+)[2Nal][Thp]AN[3Pal][Sar]-NMe2; disulfide 1-6)
1.8	178	CC(=O)NCCCC[C@@H]1NC(=O)[C@H](Cc2c[nH]c3c(C)cccc23)NC(=O)[C@H]([C@@H](C)O)NC(=O)[C@H](CC(N)=O)NC(=O)[C@@H](NC(C)=O)C(C)(C)SSC(C)(C)[C@@H](C(=O)N[C@@H](Cc2ccc(-n3cc(C[N+]4(C)CCOCC4)nn3)cc2)C(=O)N[C@@H](Cc2ccc3ccccc3c2)C(=O)NC2(C(=O)N[C@@H](CCC(=O)O)C(=O)N[C@@H](CC(N)=O)C(=O)N[C@@H](Cc3cccnc3)C(=O)N(C)CC(N)=O)CCOCC2)NC1=O [compound 459] (Ac-[Pen]NT[Trp(7-Me)]K(Ac)[Pen][X13][2Nal][Thp]EN[3Pal][Sar]-NH2; disulfide 1-6 (inferred))
